Results: patent publication US8623377B2, “Joint-homing peptides and uses thereof” (University of Maryland, Baltimore, priority 2011, dated 2014)

Columns and labels:
[1] = tested on: human synovial tissue engrafted s.c.; settings: human synovial tissue engrafted s.c. in SCID mice; cited from earlier work
HUVECs = experiment: Endothelial tube (tubule) formation on Matrigel with VEGF; assay type: cell-based, human; settings: VEGF 10 ng/mL, peptide 0-100 μg/mL
Method: FIG. 4A: Draining lymph node leukocytes from arthritic rats were dye-tagged with PKH67 and injected i.v. into arthritic rats. One group of rats was left untreated, and the other groups were treated with ADK or NQR peptide. After 24 hours, the synovium-infiltrating cells (SICs) were harvested from the joints, subjected to cytospin, and analyzed by fluorescence microscopy (left). In parallel, another set of synovium-infiltrating cells were stained with PE-labeled anti-CD3 or anti-CD 11b/c+ antibody and analyzed by flow cytometry (right). FIG. 4B: HUVECs were cultured on Matrigel-coated wells for 24 hours in the presence of VEGF (10 ng/mL) and various concentrations (0-100 μg/mL) of NQR (left), ADK (center), and RGD (right) peptides. The branches of vessel-like tubes were counted. A reprensentative set of results is shown. *P<0.05, compared with the VEGF-alone control.
HUVECs (1×10^4) were cultured in 80 μL/well of growth factor-reduced Matrigel (BD Biosciences) in a 96-well plate in 100 μL/well of F-12K medium (with no supplements). These cells were then treated for 20 h with VEGF (R&D Systems) in the presence or absence of different concentrations of peptides (NQR, ADK, or RGD). Tubule formation was observed under a microscope, quantitated, and photographed.

ERK1/2 = experiment: VEGF-induced signaling in HUVECs, Western blot p-ERK1/2; assay type: cell-based, human; settings: peptide 10, 50, 100 μg/mL 1 h, then VEGF 10 ng/mL 20 min
Excerpt: (§1) FIG. 6A: HUVECs were stimulated with VEGF and treated with the indicated concentrations of peptides. Phosphorylated ERK1/2 and Akt, as well as total ERK1/2 and Akt, were detected by Western blot analysis. FIG. 6B: Thereafter, p-ERK1/2 and p-Akt were quantified by densitometry, normalized to total ERK1/2 (left) and Akt (right), respectively, and compared with cells in serum-free medium. The results of a representative experiment from a set of three independent experiments are shown. *P<0.05, compared with the positive control.
(§2) HUVECs were grown in F-12K medium in the presence of endothelial cell growth supplement (ECGS) (BD Biosciences) and 15% FBS. Confluent cells were starved in basal medium (without ECGS and FBS) for 6 h. Then the cells were pretreated for 1 h with different concentrations (10, 50, and 100 μg/mL) of a peptide (NQR, ADK, or RGD) in fresh basal medium, followed by treatment with VEGF (10 ng/mL) for another 20 min. The conditional medium was discarded, and the cells were lysed using a lysis buffer containing protease inhibitors and phosphatase inhibitors. The cell lysate was then centrifuged, and the resulting supernatant was used for analysis of signaling molecules using specific antibodies to human pERK1/2, ERK1/2, pAkt, Akt, and GAPDH (Cell Signaling Technology) by Western blot analysis. The intensity of the bands in the gel was quantified by densitometry. The levels of p-ERK1/2 and p-Akt were normalized to total ERK1/2 and Akt, respectively, and compared with cells in serum-free medium.

Akt = experiment: VEGF-induced signaling in HUVECs, Western blot p-Akt; assay type: cell-based, human; settings: peptide 10, 50, 100 μg/mL 1 h, then VEGF 10 ng/mL 20 min
Excerpt: as §1, §2

[2] = tested on: HUVECs attachment to vitronectin; experiment: Attachment of HUVECs to vitronectin; assay type: cell-based, human; settings: peptide 30-800 μg/mL, 1 h on vitronectin-coated wells
Method: HUVECs were first suspended in F-12K medium containing the indicated concentrations of NQR, AK or RGD peptide and then incubated for 1 h in microtiter wells coated with vitronectin. The number of cells that attached to vitronectin was quantified. The results of three independent experiments are shown. *P<0.05, compared with the baseline control.
The attachment of HUVECs to vitrnectin was quantified as described (37, 38). Microtiter wells were coated overnight at 4° C. with 2 μg/mL of vitronectin (BD Biosciences). These wells were then blocked for 1 h at 37° C. with 10 mg/mL of BSA (Sigma-Aldrich). In parallel, HUVECs (1.5×10^5 cells/mL) suspended in F-12K medium containing 10% FBS were incubated for 15 min at 37° C. with different concentrations (30-800 μg/mL) of NQR, ADK, or RGD peptide. Thereafter, this cell suspension 100 μL/well) was added to the vitronectin-coated wells, followed by incubation at 37° C. for 1 h. After washing, the number of attached cells was determined using crystal violet (Fisher Scientific).

[3] = tested on: adjuvant arthritis in Lewis rats; experiment: Antiarthritic activity in the adjuvant arthritis (AA) model, arthritic score; assay type: in vivo, Lewis rat
Method: FIG. 3A: Group of arthritic Lewis rats (n=4 per group) were injected with a peptide (AD, NQR, or RGD) or PBS i.v. on the days indicated by the arrows either at the onset or just after the onset of arthritis. The its were monitored regularly for the disease severity, presented as “arthritic score”. […] The sections were graded for histopathological features associated with arthritis. B, bone; C, cartilage, JS, joint space; SIC, synovium-infiltrating cells.
The synthetic peptide corresponding to the selected phage-encoded peptide was diluted in PBS and injected i.v. into Lewis rats beginning either at the onset or just after the onset of arthritis after Mtb injection. The peptide was injected to rats on alternate days at a dose of 1 or 2 mg/kg body weight. A total of three or four injections were given to each rat. Control animals received an equal volume of PBS. All rats were graded regularly for clinical signs of arthritis (36). The hind paws of these rats were harvested and processed for histopathological examination.
AA was induced in Lewis rats by immunizing them with 1 mg/rat of heat-killed M. tuberculosis H37Ra (Mtb; Difco) in 200 μL of mineral oil (Sigma-Aldrich) via s.c. injection at the base of the tail. Beginning on day 7 after immunization, the rats were observed regularly for signs of arthritis in the paws. The severity of arthritis was evaluated based on erythema and swelling as described previously. The highest score for each paw was 4, and the total maximum score for each rat was 16. The course of AA in the Lewis rat involved the following phases: incubation (days 0-8), onset (days 9-11), peak (days 15-18), and recovery (days 21-27).

αvβ3 = biological target: T1, αvβ3 (Oryctolagus cuniculus, UniProt A0A5F9CTL5+A0A5F9D0E2); settings: intra-articular injection, rabbits with antigen-induced arthritis; cited from earlier work
T1 construct: host or cells: rabbit joints in vivo (intra-articular injection)
T1 sequence (A0A5F9D0E2 30-1047): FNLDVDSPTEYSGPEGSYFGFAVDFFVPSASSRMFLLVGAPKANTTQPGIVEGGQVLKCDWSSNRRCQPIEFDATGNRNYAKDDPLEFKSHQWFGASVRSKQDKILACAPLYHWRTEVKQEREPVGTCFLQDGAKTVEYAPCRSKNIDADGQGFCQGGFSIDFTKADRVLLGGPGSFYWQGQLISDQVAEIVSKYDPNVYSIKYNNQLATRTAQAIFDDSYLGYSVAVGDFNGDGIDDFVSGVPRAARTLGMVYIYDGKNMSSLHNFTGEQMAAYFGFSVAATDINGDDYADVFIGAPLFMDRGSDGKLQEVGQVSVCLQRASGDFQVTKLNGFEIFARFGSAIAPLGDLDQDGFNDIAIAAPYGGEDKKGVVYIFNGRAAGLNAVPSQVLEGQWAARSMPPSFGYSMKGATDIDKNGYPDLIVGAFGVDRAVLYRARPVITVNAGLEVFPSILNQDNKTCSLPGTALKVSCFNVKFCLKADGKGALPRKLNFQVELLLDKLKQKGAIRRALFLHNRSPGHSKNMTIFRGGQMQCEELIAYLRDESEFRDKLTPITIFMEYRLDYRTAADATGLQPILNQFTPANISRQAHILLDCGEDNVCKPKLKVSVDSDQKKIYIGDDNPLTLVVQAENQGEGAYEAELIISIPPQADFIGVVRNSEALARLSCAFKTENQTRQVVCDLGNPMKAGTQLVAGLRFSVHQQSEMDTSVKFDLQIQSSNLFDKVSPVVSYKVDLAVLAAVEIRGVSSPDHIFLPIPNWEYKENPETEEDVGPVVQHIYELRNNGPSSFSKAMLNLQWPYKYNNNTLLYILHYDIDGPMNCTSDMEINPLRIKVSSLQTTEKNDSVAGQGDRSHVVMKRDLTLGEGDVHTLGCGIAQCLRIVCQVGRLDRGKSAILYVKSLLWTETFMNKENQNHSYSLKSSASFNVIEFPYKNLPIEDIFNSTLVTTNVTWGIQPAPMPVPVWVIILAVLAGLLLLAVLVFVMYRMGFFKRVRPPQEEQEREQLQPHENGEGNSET
T1 sequence (A0A5F9CTL5 1-785): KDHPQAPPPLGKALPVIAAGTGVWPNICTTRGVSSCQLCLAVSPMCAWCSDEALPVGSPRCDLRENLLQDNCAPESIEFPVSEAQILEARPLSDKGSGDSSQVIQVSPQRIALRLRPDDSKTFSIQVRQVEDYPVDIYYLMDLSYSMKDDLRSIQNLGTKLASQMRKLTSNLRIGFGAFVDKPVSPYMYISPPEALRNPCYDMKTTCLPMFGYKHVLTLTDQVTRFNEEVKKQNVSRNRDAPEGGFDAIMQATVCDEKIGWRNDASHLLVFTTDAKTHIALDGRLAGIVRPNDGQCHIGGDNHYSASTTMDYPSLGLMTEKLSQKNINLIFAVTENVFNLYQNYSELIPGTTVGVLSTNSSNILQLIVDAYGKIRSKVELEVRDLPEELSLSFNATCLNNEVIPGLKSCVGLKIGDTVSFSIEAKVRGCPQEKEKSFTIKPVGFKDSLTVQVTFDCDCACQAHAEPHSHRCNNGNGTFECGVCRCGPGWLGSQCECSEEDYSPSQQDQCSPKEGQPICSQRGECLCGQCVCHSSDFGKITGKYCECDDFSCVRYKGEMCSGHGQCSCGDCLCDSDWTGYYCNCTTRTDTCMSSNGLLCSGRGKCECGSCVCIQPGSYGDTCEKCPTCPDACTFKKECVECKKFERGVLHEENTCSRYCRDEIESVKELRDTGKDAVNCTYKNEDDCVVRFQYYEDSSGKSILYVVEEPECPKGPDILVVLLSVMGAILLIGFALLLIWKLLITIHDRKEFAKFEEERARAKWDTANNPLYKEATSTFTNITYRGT

CKSTHDRLC [literature peptide homing to human synovial tissue engrafted in SCID mice]
homing of peptide [1]: homing to the human synovial tissue

CRNADKFPC (Synthetic peptide homing to joint in an animal) [ADK peptide, joint-homing phage-derived synthetic peptide]
effect on endothelial cell tube formation (HUVECs): had no effect | effect on VEGF-induced pERK (ERK1/2): had no effect | effect on VEGF-induced pAkt (Akt): had no effect | effect on attachment of HUVECs to vitronectin [2]: Neither peptide had any effect

RGDfK [RGD peptide, reference compound]
effect on endothelial cell tube formation (HUVECs): inhibited tube formation | effect on VEGF-induced pERK (ERK1/2): the opposite was observed | effect on VEGF-induced pAkt (Akt): the opposite was observed | effect on attachment of HUVECs to vitronectin [2]: significantly inhibited cell attachment | difference in arthritic score versus PBS/ADK ([3]; from day 15 to day 27 (FIG. 3A center)): significant | suppression of the arthritic process ([3]; i.v. injection around the time of onset of arthritis, 1 or 2 mg/kg on alternate days): also suppressed arthritis | down-modulation of arthritis ([3]; injected just after the onset of AA): effective in down-modulating arthritis

RGDfV
effect on arthritis (αvβ3): reduce clinical arthritis, synovial angiogenesis, and joint damage
